The kinase profiling compilation of Christmann-Franck et al. (2016)
Where “and” joins values, the source holds several entries; their conditions need not be identical. Equal entries are not always repeated.

Legend:
Assay in all cases: radiometric filter-binding kinase assay, Kinase HotSpot
Settings in all cases: compound 0.5 µM; ATP 10 µM
[1] = molecular target: AKT1 (human) (UniProt P31749)
[2] = molecular target: AKT3 (human) (UniProt Q9Y243)
[3] = molecular target: BLK (human) (UniProt P51451)
[4] = molecular target: CAMK2B (human) (UniProt Q13554)
[5] = molecular target: CDC42BPA (human) (UniProt Q5VT25)
[6] = molecular target: CDK3 CCNE1 (human) (UniProt Q00526+P24864)
[7] = molecular target: CLK2 (human) (UniProt P49760)
[8] = molecular target: CSK (human) (UniProt P41240)
[9] = molecular target: DDR2 (human) (UniProt Q16832)
[10] = molecular target: EPHA2 (human) (UniProt P29317)
[11] = molecular target: EPHA8 (human) (UniProt P29322)
[12] = molecular target: GRK4 (human) (UniProt P32298)
[13] = molecular target: GRK5 (human) (UniProt P34947)
[14] = molecular target: GRK7 (human) (UniProt Q8WTQ7)
[15] = molecular target: IKBKB (human) (UniProt O14920)
[16] = molecular target: KDR (human) (UniProt P35968)
[17] = molecular target: KIT (human) (UniProt P10721)
[18] = molecular target: LCK (human) (UniProt P06239)
[19] = molecular target: LYN (human) (UniProt P07948)
[20] = molecular target: MAP3K5 (human) (UniProt Q99683)
[21] = molecular target: MLTK (human) (UniProt Q9NYL2)
[22] = molecular target: NEK1 (human) (UniProt Q96PY6)
[23] = molecular target: NEK3 (human) (UniProt P51956)
[24] = molecular target: NLK (human) (UniProt Q9UBE8)
[25] = molecular target: NUAK1 (human) (UniProt O60285)
[26] = molecular target: OXSR1 (human) (UniProt O95747)
[27] = molecular target: PDGFRA (human) (UniProt P16234)
[28] = molecular target: PRKCD (human) (UniProt Q05655)
[29] = molecular target: PRKCG (human) (UniProt P05129)
[30] = molecular target: PRKCH (human) (UniProt P24723)
[31] = molecular target: PRKG2 (human) (UniProt Q13237)
[32] = molecular target: PRKX (human) (UniProt P51817)
[33] = molecular target: PTK2 (human) (UniProt Q05397)
[34] = molecular target: ROS1 (human) (UniProt P08922)
[35] = molecular target: RPS6KB1 (human) (UniProt P23443)
[36] = molecular target: SIK2 (human) (UniProt Q9H0K1)
[37] = molecular target: SRMS (human) (UniProt Q9H3Y6)
[38] = molecular target: SRPK2 (human) (UniProt P78362)
[39] = molecular target: TAOK2 (human) (UniProt Q9UL54)
[40] = molecular target: TBK1 (human) (UniProt Q9UHD2)
[41] = molecular target: ULK1 (human) (UniProt O75385)
[42] = molecular target: BMX (human) (UniProt P51813)

Chain of AKT3 (human) (Q9Y243 whole entry, looked up): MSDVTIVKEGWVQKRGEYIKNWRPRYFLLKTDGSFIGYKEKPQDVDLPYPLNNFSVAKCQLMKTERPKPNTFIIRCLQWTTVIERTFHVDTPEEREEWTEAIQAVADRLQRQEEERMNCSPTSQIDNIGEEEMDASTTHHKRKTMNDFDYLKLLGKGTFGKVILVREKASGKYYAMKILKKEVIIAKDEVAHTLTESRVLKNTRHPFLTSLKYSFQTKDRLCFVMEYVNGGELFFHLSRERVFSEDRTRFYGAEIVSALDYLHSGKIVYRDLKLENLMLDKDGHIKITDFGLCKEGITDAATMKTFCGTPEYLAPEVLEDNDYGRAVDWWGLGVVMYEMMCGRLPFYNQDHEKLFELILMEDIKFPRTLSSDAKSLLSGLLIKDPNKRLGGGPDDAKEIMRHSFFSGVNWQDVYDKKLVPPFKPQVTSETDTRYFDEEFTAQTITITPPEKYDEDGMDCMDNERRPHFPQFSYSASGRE
Chain of NLK (human) (Q9UBE8 whole entry, looked up): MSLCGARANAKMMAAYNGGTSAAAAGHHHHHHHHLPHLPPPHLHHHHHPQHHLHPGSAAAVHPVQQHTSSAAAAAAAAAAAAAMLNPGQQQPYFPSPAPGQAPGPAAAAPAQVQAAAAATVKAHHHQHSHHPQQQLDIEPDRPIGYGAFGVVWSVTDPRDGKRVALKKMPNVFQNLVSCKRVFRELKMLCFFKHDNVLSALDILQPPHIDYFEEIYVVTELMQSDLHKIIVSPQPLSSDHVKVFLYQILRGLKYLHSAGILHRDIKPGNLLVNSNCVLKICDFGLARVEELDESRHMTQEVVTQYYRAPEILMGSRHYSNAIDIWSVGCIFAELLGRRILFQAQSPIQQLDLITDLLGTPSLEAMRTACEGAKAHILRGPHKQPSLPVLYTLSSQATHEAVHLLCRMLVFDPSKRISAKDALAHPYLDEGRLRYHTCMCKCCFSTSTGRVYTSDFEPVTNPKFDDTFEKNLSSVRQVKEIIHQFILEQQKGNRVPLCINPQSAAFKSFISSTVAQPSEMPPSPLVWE
Chain of EPHA8 (human) (P29322 whole entry, looked up): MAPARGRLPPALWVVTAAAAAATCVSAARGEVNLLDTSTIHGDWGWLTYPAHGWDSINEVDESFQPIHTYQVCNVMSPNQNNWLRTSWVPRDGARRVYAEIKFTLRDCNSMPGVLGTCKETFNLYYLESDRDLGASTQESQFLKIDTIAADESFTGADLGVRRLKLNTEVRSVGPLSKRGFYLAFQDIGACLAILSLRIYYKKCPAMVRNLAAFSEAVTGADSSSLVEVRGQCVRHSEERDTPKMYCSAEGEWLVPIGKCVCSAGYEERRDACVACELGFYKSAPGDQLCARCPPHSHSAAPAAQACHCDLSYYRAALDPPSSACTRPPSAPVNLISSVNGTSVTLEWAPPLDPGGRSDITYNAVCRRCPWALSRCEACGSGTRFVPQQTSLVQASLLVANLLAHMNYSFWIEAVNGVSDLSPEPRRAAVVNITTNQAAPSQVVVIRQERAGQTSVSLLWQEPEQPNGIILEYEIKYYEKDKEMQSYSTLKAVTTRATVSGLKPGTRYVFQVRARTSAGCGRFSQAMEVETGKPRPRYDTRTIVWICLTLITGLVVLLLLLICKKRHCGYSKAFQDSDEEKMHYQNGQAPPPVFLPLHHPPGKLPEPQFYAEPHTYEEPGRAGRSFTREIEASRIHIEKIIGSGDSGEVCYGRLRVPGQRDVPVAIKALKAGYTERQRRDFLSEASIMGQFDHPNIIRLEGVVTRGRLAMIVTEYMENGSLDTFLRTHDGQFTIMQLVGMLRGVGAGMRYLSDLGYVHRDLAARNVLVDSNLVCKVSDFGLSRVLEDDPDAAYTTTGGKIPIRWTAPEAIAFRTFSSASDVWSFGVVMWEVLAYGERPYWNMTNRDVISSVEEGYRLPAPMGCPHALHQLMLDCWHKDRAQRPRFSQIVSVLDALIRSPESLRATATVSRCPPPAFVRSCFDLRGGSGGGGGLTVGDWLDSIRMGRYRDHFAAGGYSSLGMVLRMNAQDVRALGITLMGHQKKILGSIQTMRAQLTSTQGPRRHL
Chain of PRKCD (human) (Q05655 whole entry, looked up): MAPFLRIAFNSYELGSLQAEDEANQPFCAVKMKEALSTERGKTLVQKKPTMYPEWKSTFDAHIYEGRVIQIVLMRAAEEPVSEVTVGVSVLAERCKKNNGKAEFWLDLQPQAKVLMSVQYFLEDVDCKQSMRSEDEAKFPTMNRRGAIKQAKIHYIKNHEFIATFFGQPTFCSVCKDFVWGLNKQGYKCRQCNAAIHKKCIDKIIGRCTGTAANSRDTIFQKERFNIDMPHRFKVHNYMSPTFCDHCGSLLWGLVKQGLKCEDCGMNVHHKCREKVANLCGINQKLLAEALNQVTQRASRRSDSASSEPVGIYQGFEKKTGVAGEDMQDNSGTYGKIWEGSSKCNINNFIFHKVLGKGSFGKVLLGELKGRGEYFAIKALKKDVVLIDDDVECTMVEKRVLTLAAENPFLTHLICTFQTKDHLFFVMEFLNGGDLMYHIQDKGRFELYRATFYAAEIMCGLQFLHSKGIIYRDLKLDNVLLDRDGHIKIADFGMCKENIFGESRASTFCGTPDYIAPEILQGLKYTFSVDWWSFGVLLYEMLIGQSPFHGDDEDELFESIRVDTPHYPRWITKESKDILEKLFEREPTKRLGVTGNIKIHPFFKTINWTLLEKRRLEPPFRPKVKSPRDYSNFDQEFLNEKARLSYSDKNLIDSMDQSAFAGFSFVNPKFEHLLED
Chain of OXSR1 (human) (O95747 whole entry, looked up): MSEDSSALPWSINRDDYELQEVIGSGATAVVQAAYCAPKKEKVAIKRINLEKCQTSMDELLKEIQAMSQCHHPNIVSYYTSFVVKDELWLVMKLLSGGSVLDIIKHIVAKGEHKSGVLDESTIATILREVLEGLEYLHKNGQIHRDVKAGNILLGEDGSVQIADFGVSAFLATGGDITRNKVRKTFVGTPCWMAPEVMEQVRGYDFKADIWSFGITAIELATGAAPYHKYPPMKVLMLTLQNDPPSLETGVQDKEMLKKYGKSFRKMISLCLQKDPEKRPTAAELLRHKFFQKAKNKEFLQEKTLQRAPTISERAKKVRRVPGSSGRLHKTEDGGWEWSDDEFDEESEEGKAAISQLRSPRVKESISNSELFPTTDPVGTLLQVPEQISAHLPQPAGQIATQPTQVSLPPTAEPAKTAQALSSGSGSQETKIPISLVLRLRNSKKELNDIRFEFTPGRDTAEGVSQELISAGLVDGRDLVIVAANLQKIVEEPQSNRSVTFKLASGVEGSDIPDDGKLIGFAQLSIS
Chain of TBK1 (human) (Q9UHD2 whole entry, looked up): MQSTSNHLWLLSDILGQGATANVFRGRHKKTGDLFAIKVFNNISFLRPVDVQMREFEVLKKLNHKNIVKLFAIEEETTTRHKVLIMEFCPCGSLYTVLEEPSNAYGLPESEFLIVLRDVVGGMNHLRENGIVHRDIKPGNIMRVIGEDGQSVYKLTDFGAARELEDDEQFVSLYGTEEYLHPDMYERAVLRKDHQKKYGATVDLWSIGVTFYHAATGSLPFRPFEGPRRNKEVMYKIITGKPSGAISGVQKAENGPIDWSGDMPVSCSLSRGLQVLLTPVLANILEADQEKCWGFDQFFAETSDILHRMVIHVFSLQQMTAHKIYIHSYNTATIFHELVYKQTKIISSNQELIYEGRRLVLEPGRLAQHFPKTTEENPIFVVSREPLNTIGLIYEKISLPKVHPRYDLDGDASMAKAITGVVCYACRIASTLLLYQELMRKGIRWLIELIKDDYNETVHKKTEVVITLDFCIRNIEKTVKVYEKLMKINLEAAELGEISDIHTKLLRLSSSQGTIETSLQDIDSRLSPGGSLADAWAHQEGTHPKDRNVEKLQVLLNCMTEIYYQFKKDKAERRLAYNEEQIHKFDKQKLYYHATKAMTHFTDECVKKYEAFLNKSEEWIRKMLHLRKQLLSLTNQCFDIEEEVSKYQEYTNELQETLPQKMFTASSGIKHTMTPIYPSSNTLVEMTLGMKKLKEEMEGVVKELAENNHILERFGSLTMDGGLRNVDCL
Chain of KIT (human) (P10721 whole entry, looked up): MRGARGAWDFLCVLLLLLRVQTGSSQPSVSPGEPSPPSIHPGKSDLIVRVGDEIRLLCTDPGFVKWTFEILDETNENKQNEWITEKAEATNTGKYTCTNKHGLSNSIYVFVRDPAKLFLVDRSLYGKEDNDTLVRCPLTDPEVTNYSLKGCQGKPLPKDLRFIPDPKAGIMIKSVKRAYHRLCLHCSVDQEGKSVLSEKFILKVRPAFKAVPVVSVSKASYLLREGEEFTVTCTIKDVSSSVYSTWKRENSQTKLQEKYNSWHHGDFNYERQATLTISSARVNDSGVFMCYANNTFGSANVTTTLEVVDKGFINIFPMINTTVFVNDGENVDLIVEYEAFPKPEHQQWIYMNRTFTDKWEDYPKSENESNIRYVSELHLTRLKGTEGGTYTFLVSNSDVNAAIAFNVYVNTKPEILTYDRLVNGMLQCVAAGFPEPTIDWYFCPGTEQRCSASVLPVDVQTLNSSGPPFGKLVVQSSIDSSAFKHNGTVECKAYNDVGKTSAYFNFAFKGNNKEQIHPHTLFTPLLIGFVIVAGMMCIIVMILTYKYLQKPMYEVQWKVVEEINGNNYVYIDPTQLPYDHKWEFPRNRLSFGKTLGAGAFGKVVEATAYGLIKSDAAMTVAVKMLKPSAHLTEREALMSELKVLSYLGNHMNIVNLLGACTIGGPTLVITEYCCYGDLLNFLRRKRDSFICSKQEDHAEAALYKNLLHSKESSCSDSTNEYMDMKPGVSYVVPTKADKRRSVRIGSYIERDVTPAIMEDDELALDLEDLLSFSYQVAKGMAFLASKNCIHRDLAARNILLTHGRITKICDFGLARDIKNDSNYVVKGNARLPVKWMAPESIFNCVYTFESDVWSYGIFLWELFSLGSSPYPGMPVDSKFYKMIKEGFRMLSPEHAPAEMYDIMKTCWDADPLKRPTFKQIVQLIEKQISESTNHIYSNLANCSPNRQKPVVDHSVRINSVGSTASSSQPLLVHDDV

Work on Nc1nc(Nc2ccc(S(N)(=O)=O)cc2)nn1C(=O)c1c(F)cccc1F yielded a residual activity [1] of 120%, a residual activity [2] of 95% and a residual activity [3] of 90.1%. For the same compound, the residual activity [4] was 99.7%, the residual activity [5] was 97.5% and the residual activity [6] was 32.4%. It also gave a residual activity [7] of 71.5%, a residual activity [8] of 88.9% and a residual activity [9] of 113%. For the same compound, the residual activity [10] was 80.9%, the residual activity [11] was 109% and the residual activity [12] was 94.7%. It also gave a residual activity [13] of 85.9%, a residual activity [14] of 65.9% and a residual activity [15] of 105%. For the same compound, the residual activity [16] was 64.6%, the residual activity [17] was 81.7% and the residual activity [18] was 87.9%. For the same compound, the residual activity [19] was 103% and 80.5%, the residual activity [20] was 103% and the residual activity [21] was 100%. For the same compound, the residual activity [22] was 76.3%, the residual activity [23] was 92.6% and the residual activity [24] was 86%. It also gave a residual activity [25] of 3.29%, a residual activity [26] of 88.8% and a residual activity [27] of 82%. The residual activity [28] was 81.2%, the residual activity [29] was 81.3% and the residual activity [30] was 100%. It also gave a residual activity [31] of 92.2%, a residual activity [32] of 89% and a residual activity [33] of 95.5%. The residual activity [34] was 39.5%, the residual activity [35] was 92.1% and the residual activity [36] was 84.1%. The residual activity [37] was 96.5%, the residual activity [38] was 54.9% and the residual activity [39] was 8.92%. The residual activity [40] was 80% and the residual activity [41] was 62.5%.
In the case of Nc1nc(Nc2ccc(S(N)(=O)=O)cc2)nn1C(=S)Nc1c(F)cccc1F, the residual activity [1] is reported as 103%, the residual activity [2] is reported as 96.4% and the residual activity [3] is reported as 38.6%. For the same compound, the residual activity [42] was 77.5%, the residual activity [4] was 9.5% and the residual activity [5] was 54.6%. For the same compound, the residual activity [6] was -0.912%, the residual activity [7] was 3.81% and the residual activity [8] was 76.8%. It also gave a residual activity [9] of 130%, a residual activity [10] of 29.9% and a residual activity [11] of 98.5%. For the same compound, the residual activity [12] was 92.2%, the residual activity [13] was 75.6% and the residual activity [14] was 96.6%. For the same compound, the residual activity [15] was 49.3%, the residual activity [16] was 6.55% and the residual activity [17] was 78.4%. The residual activity [18] was 23.6%, the residual activity [20] was 1.12% and the residual activity [21] was 49.1%. For the same compound, the residual activity [22] was 6.11%, the residual activity [23] was 19.6% and the residual activity [24] was 45.1%. It also gave a residual activity [25] of 2.13%, a residual activity [26] of 67.6% and a residual activity [27] of 56.4%. For the same compound, the residual activity [28] was 22.2%, the residual activity [29] was 93% and the residual activity [30] was 45.7%. For the same compound, the residual activity [31] was 61.4%, the residual activity [32] was 76.3% and the residual activity [33] was 25.3%. For the same compound, the residual activity [34] was 1.68%, the residual activity [35] was 30% and the residual activity [36] was 16.1%. It also gave a residual activity [37] of 94%, a residual activity [38] of 17.1% and a residual activity [39] of 11.5%. The residual activity [40] was 10.3% and the residual activity [41] was 5.03%.
NC(=O)c1ccc(N(C(N)=O)c2c(F)cccc2F)nc1-c1ccc(F)cc1F gave a residual activity [1] of 84.7%, a residual activity [2] of 86.2% and a residual activity [3] of 100%. It also gave a residual activity [42] of 108%, a residual activity [4] of 104% and a residual activity [5] of 93.8%. It also gave a residual activity [6] of 94.7%, a residual activity [7] of 86.9% and a residual activity [8] of 90%. For the same compound, the residual activity [9] was 100%, the residual activity [10] was 89% and the residual activity [11] was 98.7%. It also gave a residual activity [12] of 90.7%, a residual activity [13] of 103% and a residual activity [14] of 108%. The residual activity [15] was 94.8%, the residual activity [16] was 96.5% and the residual activity [17] was 97.7%. The residual activity [18] was 86.3%, the residual activity [19] was 106% and 98.1% and the residual activity [20] was 102%. It also gave a residual activity [21] of 97.9%, a residual activity [22] of 69.6% and a residual activity [23] of 96%. The residual activity [24] was 15.8%, the residual activity [25] was 108% and the residual activity [26] was 96.9%. It also gave a residual activity [27] of 102%, a residual activity [28] of 104% and a residual activity [29] of 91.3%. For the same compound, the residual activity [30] was 112%, the residual activity [31] was 98.1% and the residual activity [32] was 123%. For the same compound, the residual activity [33] was 98.9%, the residual activity [34] was 95% and the residual activity [35] was 100%. It also gave a residual activity [36] of 95.1%, a residual activity [37] of 92.9% and a residual activity [39] of 98.7%. The residual activity [40] was 106% and the residual activity [41] was 104%.
